Some test systems named below: EKVX; SK-OV-3; Hs-578T; A498; HOP-92; NCI-H460; RXF 393; HL-60; NCI-H522; HT-29; IGROV-1; NCI-H226; TK-10; NCI/ADR-RES; T47D; MDA-MB-231; U-251; UO-31; SN12C; SK-MEL-2.
Holding throughout (assay): NCI-60 cell line screen, 48 h

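1) Cells in 96-well plates. 2) Compound, 48 h, 5 concentrations. 3) Linear interpolation between surrounding doses. 4) Unreached endpoint = highest concentration. The concentration for 50% growth inhibition is given as GI50.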 The source made the active and inactive calls. No stated cut-off is given here; in the data, active = GI50 up to about 1.1 µM and inactive = higher. Bounds are passed on as bounds.

Consider ten molecules from ChEMBL document CHEMBL1201862, “PubChem BioAssay data set” (2004).

Turning to `CCOC(=O)/C=C(\C(=O)OCC)n1ccc(=O)n(Cc2cn(CCCCOC(C)=O)nn2)c1=O`, the GI50 in the test on EKVX is 13 µM (inactive); in the test on SK-OV-3, 32.4 µM (inactive); in the test on Hs-578T, 22.7 µM (inactive); in the test on A498 it was 17.6 µM (inactive); in the test on HOP-92, 2.55 µM (inactive); in the test with NCI-H460, 13.6 µM (inactive). Moreover, the GI50 with RXF 393 is 12 µM (inactive); with HL-60 it was 0.26 µM (active); with NCI-H522, 1.72 µM (inactive); in the test with HT-29 it was 8.05 µM (inactive); in the test with IGROV-1 it was 19.5 µM (inactive); with NCI-H226, 13.6 µM (inactive). Further, the GI50 in the test on TK-10 is 6.4 µM (inactive); in the test on NCI/ADR-RES, 19.9 µM (inactive); in the test with T47D, 5.36 µM (inactive); with MDA-MB-231 it was 18.6 µM (inactive); in the test on U-251, 16.1 µM (inactive); with UO-31, 15.3 µM (inactive). The GI50 in the test with SN12C is 15.2 µM (inactive); in the test with SK-MEL-2, 18.8 µM (inactive).
For `O=P1(O)c2ccccc2Nc2cc(C(F)(F)F)ccc21`, the GI50 in the test with EKVX, in the test with SK-OV-3, in the test with Hs-578T, in the test with A498, in the test with HOP-92 and with NCI-H460 was > 100 µM (inactive) throughout. Further, the GI50 in the test on RXF 393, in the test with HL-60, in the test with NCI-H522, with HT-29, in the test with IGROV-1 and in the test on NCI-H226 was > 100 µM (inactive) in each case. Also, the GI50 with TK-10, in the test with NCI/ADR-RES, in the test on T47D, in the test on MDA-MB-231, with U-251 and in the test with UO-31 was > 100 µM (inactive) in each case. Besides, the GI50 in the test on SN12C and in the test on SK-MEL-2 was > 100 µM (inactive) throughout.
For `O=c1ccc2cc(O)c(O)cc2o1` [ESCULETIN], the GI50 in the test with EKVX, in the test with SK-OV-3, in the test with Hs-578T, with A498, with HOP-92 and in the test with NCI-H460 was > 100 µM (inactive) each time. For the same molecule, the GI50 with RXF 393, in the test on HL-60, in the test with NCI-H522, with HT-29, with IGROV-1 and in the test with NCI-H226 was > 100 µM (inactive) each time. For the same molecule, the GI50 in the test on TK-10 is > 100 µM (inactive); with NCI/ADR-RES, > 100 µM (inactive); in the test with T47D it was > 41.8 µM (inactive); in the test with MDA-MB-231, > 100 µM (inactive); with U-251, > 100 µM (inactive); in the test on UO-31 it was > 100 µM (inactive). In addition, the GI50 in the test with SN12C and in the test on SK-MEL-2 was > 100 µM (inactive) each time.
In the case of `CC(C)(C)NC(=O)[C@H]1CC[C@H]2[C@@H]3CC=C4NC(=O)CC[C@]4(C)[C@H]3CC[C@]12C`, the GI50 in the test with EKVX was > 100 µM (inactive); with SK-OV-3, > 100 µM (inactive); with Hs-578T, 50.9 µM (inactive); with A498, > 100 µM (inactive); in the test on HOP-92 it was 97.9 µM (inactive); with NCI-H460, > 100 µM (inactive). Besides, the GI50 in the test with RXF 393 was > 100 µM (inactive); with HL-60, > 100 µM (inactive); with NCI-H522, 36.4 µM (inactive); in the test with HT-29 it was > 100 µM (inactive); in the test on IGROV-1 it was > 100 µM (inactive); in the test with NCI-H226, > 100 µM (inactive). The GI50 in the test with TK-10 was 46.8 µM (inactive); with NCI/ADR-RES, 64.9 µM (inactive); in the test with T47D, > 100 µM (inactive); in the test on MDA-MB-231 it was 29.3 µM (inactive); in the test with U-251, > 100 µM (inactive); with UO-31 it was > 100 µM (inactive). Moreover, the GI50 with SN12C and in the test with SK-MEL-2 was > 100 µM (inactive) in each case.
Take `Nc1c2c(nc3ccccc13)-c1ccccc1NCCC2`: the GI50 was 38.3 µM (inactive) in the test with EKVX; 64.6 µM (inactive) in the test with SK-OV-3; 56.5 µM (inactive) with Hs-578T; 16.6 µM (inactive) in the test on A498; 13.9 µM (inactive) with HOP-92; 15.3 µM (inactive) in the test on NCI-H460. The GI50 is 16.1 µM (inactive) with RXF 393; 18.4 µM (inactive) in the test on HL-60; 26.9 µM (inactive) in the test with NCI-H522; 23 µM (inactive) with HT-29; 33.3 µM (inactive) in the test with IGROV-1; 25.4 µM (inactive) with NCI-H226. Further, the GI50 was 19 µM (inactive) in the test on TK-10; 68.2 µM (inactive) in the test on NCI/ADR-RES; 26.1 µM (inactive) in the test with T47D; 19.7 µM (inactive) in the test with MDA-MB-231; 32.2 µM (inactive) in the test with U-251; 25 µM (inactive) with UO-31. The results for the GI50 with SN12C and in the test with SK-MEL-2 were 33.3 µM (inactive) and 18 µM (inactive), respectively.
For `CC[C@H]1C=CCC[C@@]2(C[C@@H]3CC[C@@H]4[C@H](C(=O)OCCCCCCCCCCCCCCCC(=O)N(CCCNC(C)=O)C[C@H](CCNC(C)=O)OC(C)=O)[C@]5(CCC[C@@H](C)O5)NC(=[N+]34)N2)O1`, the GI50 was 0.392 µM (active) with EKVX; 1.43 µM (inactive) with SK-OV-3; 0.391 µM (active) in the test on Hs-578T; 0.435 µM (active) with A498; 0.0659 µM (active) in the test on HOP-92; 0.131 µM (active) with NCI-H460. In addition, the GI50 was 0.187 µM (active) in the test on RXF 393; 0.0745 µM (active) in the test with HL-60; 0.0331 µM (active) with NCI-H522; 0.0344 µM (active) with HT-29; 0.0583 µM (active) in the test on IGROV-1; 0.229 µM (active) in the test on NCI-H226. Also, the GI50 in the test on TK-10 is 0.759 µM (active); with NCI/ADR-RES, 2.74 µM (inactive); with T47D it was 0.249 µM (active); in the test with MDA-MB-231, 0.0914 µM (active); in the test with U-251, 0.0538 µM (active); with UO-31 it was 1.2 µM (inactive). Also, the GI50 in the test on SN12C is 0.516 µM (active); in the test with SK-MEL-2, 0.0404 µM (active).
On to `CC[C@@H](/C=C\CCC1(C[C@H](O)CCC=C(C)C)OCCO1)O[Si](C(C)C)(C(C)C)C(C)C`, for which the GI50 in the test with EKVX was 28.8 µM (inactive); in the test on SK-OV-3 it was 21.8 µM (inactive); with Hs-578T it was 37.3 µM (inactive); in the test with A498, 32.8 µM (inactive); in the test with HOP-92, 28.5 µM (inactive); with NCI-H460, 21.9 µM (inactive). The GI50 with RXF 393 was 17.3 µM (inactive); in the test on HL-60 it was 16.7 µM (inactive); in the test with NCI-H522, 20.2 µM (inactive); in the test with HT-29, 25 µM (inactive); with IGROV-1, 20.9 µM (inactive); in the test on NCI-H226, 19.6 µM (inactive). Further, the GI50 with TK-10 is 20.6 µM (inactive); with NCI/ADR-RES, 22.4 µM (inactive); with T47D it was 19.1 µM (inactive); in the test with MDA-MB-231, 17.3 µM (inactive); with U-251, 17.3 µM (inactive); with UO-31 it was 19.2 µM (inactive). Besides, the GI50 with SN12C was 18 µM (inactive); with SK-MEL-2, 16.3 µM (inactive).
For the molecule `S=C(Nc1cc(Cl)c(Cl)cc1Cl)SCc1ccccc1`, the GI50 in the test on EKVX is 40.7 µM (inactive); in the test with SK-OV-3, 56 µM (inactive); in the test with Hs-578T it was 34.3 µM (inactive); with A498, 32.9 µM (inactive); in the test on HOP-92, 21.3 µM (inactive); in the test with NCI-H460, 45.8 µM (inactive). The GI50 in the test on RXF 393 is 54.8 µM (inactive); in the test on HL-60 it was 18.8 µM (inactive); in the test with NCI-H522, 24.3 µM (inactive); in the test on HT-29 it was 20.8 µM (inactive); in the test with IGROV-1, 33.9 µM (inactive); in the test with NCI-H226, 18.5 µM (inactive). For the same molecule, the GI50 in the test with TK-10 is 24.7 µM (inactive); in the test on NCI/ADR-RES, 24.9 µM (inactive); in the test on T47D, 32.3 µM (inactive); in the test with MDA-MB-231, 13.1 µM (inactive); in the test on U-251, 22.2 µM (inactive); in the test on UO-31, 40.6 µM (inactive). The GI50 with SN12C and with SK-MEL-2 was > 100 µM (inactive) in each case.
For the molecule `NS(=O)(=O)c1ccc(/N=N/c2cccnc2O)cc1`, the GI50 with EKVX, in the test on SK-OV-3, in the test on Hs-578T, in the test with A498, with HOP-92 and in the test with NCI-H460 was > 100 µM (inactive) throughout. The GI50 with RXF 393, with HL-60, in the test on NCI-H522, in the test on HT-29, in the test on IGROV-1 and with NCI-H226 was > 100 µM (inactive) in each case. Moreover, the GI50 in the test on TK-10, in the test on NCI/ADR-RES, in the test on T47D, with MDA-MB-231, in the test with U-251 and in the test on UO-31 was > 100 µM (inactive) throughout. Further, the GI50 in the test on SN12C and in the test on SK-MEL-2 was > 100 µM (inactive) each time.
Take `COc1cc(C2c3cc4c(cc3[C@@H](Nc3ccc(C#N)cc3)C3COC(=O)[C@H]23)OCO4)cc(OC)c1O` (stereo not given in full): the GI50 was 16.7 µM (inactive) in the test on EKVX; 1.63 µM (inactive) in the test on SK-OV-3; 5.09 µM (inactive) in the test on Hs-578T; 2.01 µM (inactive) in the test on A498; 1.02 µM (active) in the test on HOP-92; 0.038 µM (active) in the test with NCI-H460. Also, the GI50 in the test on RXF 393 is 1.41 µM (inactive); in the test with HL-60, 0.143 µM (active); in the test with NCI-H522, 1.88 µM (inactive); with HT-29 it was 3.05 µM (inactive); with IGROV-1, 6.78 µM (inactive); with NCI-H226, 0.665 µM (active). Also, the GI50 was 7.82 µM (inactive) in the test on TK-10; 3.98 µM (inactive) in the test with NCI/ADR-RES; 0.828 µM (active) in the test on T47D; 9.31 µM (inactive) in the test with MDA-MB-231; 1.43 µM (inactive) with U-251; 1.62 µM (inactive) in the test with UO-31. In addition, the GI50 was 1.05 µM (active) with SN12C and 14.6 µM (inactive) in the test with SK-MEL-2.
